According to patent publication US8916702B2 (priority 2012, dated 2014):

test system: HCV pseudoparticles (genotype 1a HCV E1 and E2 envelope, H77C isolate); assay: microbe, parasite or virus in culture; assay type: cell-based; conditions: Hepatitis C virus, Huh-7, 48 h, HCV pseudoparticle infection of Huh7 cells, luciferase 2 days after infection; average of duplicates

SMILES	EC50
COC(=O)[C@H](CNC(=O)C(=O)NCC1CCCN(C(=O)OC(C)(C)C)C1)NC(=O)c1ccc(Nc2nc(NC3(c4ccc(Cl)cc4)CC3)nc(OCC(F)(F)F)n2)cc1 (stereo partly shown) [Compound 1452]	1.83 nM

same assay, conditions: Hepatitis C virus, Huh-7, 48 h, HCV pseudoparticles (genotype 1a, H77C) in Huh7 cells; average of duplicate; luciferase 2 days after infection

SMILES	EC50
O=C(NCCC(NC(=O)c1ccc(Nc2nc(NC3(c4ccc(Cl)cc4)CC3)nc(OCC(F)(F)F)n2)cc1)C(=O)O)C(=O)Nc1ccc(CN2CCCCC2)cc1 (stereo not shown) [Compound 3534]	7.54 nM

same assay, conditions: Hepatitis C virus, Huh-7, 48 h, HCV pseudoparticles, Huh7 cells, luciferase 2 days after infection; average of duplicates

SMILES	EC50
COC(=O)[C@H](CNC(=O)C(=O)Nc1cccc(CN2CCCC2)c1)NC(=O)c1ccc(Nc2nc(NC3(c4ccc(Cl)cc4)CC3)nc(OCC(F)(F)F)n2)cc1 [Compound 3723]	1.34 nM

same assay, conditions: Hepatitis C virus, Huh-7, 48 h, read-out: Activity (EC50 class), HCV pseudoparticle infection of Huh7 cells, luciferase 2 days after infection; EC50 expressed as class A/B

SMILES	EC50
O=C(NCC[C@H](NC(=O)c1ccc(Nc2nc(NC3(c4ccc(Cl)cc4)CC3)nc(OCC(F)(F)F)n2)cc1)C(=O)O)C(=O)NCC1(Cn2cccn2)CC1 [Compound 1428]	0.01 to 10 nM
Cc1nccn1CCNC(=O)C(=O)NCC[C@H](NC(=O)c1ccc(Nc2nc(NC3(c4ccc(Cl)cc4)CC3)nc(OCC(F)(F)F)n2)cc1)C(=O)O [Compound 1344]	0.01 to 10 nM
COCC1(CNC(=O)C(=O)NCC[C@H](NC(=O)c2ccc(Nc3nc(NC4(c5ccc(Cl)cc5)CC4)nc(OCC(F)(F)F)n3)cc2)C(=O)OC)CC1 [Compound 1374]	0.01 to 10 nM
O=C(NCCc1ccccc1)C(=O)NC[C@H](NC(=O)c1ccc(Nc2nc(NC3(c4ccc(Cl)cc4)CC3)nc(OCC(F)(F)F)n2)cc1)C(=O)O [Compound 1396]	0.01 to 10 nM
O=C(NCC[C@H](NC(=O)c1ccc(Nc2nc(NC3(c4ccc(Cl)cc4)CC3)nc(OCC(F)(F)F)n2)cc1)C(=O)O)C(=O)Nc1ccc(-c2ccncc2)cc1 [Compound 1525]	0.01 to 10 nM
CC(C)(CNC(=O)C(=O)Nc1ccc(C(=O)O)cc1)CNC(=O)c1ccc(Nc2nc(NC3(c4ccc(Cl)cc4)CC3)nc(OCC(F)(F)F)n2)cc1 [Compound 1457]	0.01 to 10 nM
CCC1(CC)CC1CNC(=O)C(=O)NC[C@H](NC(=O)c1ccc(Nc2nc(NC3(c4ccc(Cl)cc4)CC3)nc(OCC(F)(F)F)n2)cc1)C(=O)O (stereo partly shown) [Compound 1471]	0.01 to 10 nM
COC(=O)[C@H](CNC(=O)C(=O)NCC1CCCN(C(=O)OC(C)(C)C)C1)NC(=O)c1ccc(Nc2nc(NC3(c4ccc(Cl)cc4)CC3)nc(OCC(F)(F)F)n2)cc1 (stereo partly shown) [Compound 1452]	0.01 to 10 nM
COC(=O)[C@H](CCCNC(=O)C(N)=O)NC(=O)c1ccc(Nc2nc(NC3(c4ccc(Cl)cc4)CC3)nc(OCC(F)(F)F)n2)cc1 [Compound 1012, (S)-methyl 5-(2-amino-2-oxoacetamido)-2-(4-(4-(1-(4-chlorophenyl)cyclopropylamino)-6-(2,2,2-trifluoroethoxy)-1,3,5-triazin-2-ylamino)benzamido)pentanoate]	0.01 to 10 nM

same assay, conditions: Hepatitis C virus, Huh-7, 48 h, read-out: Activity (EC50 class), HCV pseudoparticles, Huh7 cells, luciferase 2 days after infection; average of duplicates

SMILES	EC50
CCc1ccc(COc2nc(Nc3ccc(C(=O)NCC(C)(C)CNC(=O)C(=O)Nc4ccc(C)cc4)cc3)nc(NC3(c4ccc(Cl)cc4)CC3)n2)cc1 [Compound 3842]	0.01 to 10 nM
Cc1ccc2nc(NC(=O)C(=O)NCC(C)(C)CNC(=O)c3ccc(Nc4nc(NC5(c6ccc(Cl)cc6)CC5)nc(OCC(F)(F)F)n4)cc3)sc2c1 [Compound 3826]	0.01 to 10 nM
COC(=O)[C@H](CNC(=O)C(=O)Nc1cccc(C(=O)Nc2ccccc2)c1)NC(=O)c1ccc(Nc2nc(NC3(c4ccc(Cl)cc4)CC3)nc(OCC(F)(F)F)n2)cc1 [Compound 3691]	0.01 to 10 nM
COC(=O)[C@H](CNC(=O)C(=O)Nc1cccc(CN2CCCC2)c1)NC(=O)c1ccc(Nc2nc(NC3(c4ccc(Cl)cc4)CC3)nc(OCC(F)(F)F)n2)cc1 [Compound 3723]	0.01 to 10 nM

same assay, conditions: Hepatitis C virus, Huh-7, read-out: Activity (EC50 class), HCV pseudoparticles (genotype 1a, H77C) in Huh7 cells; EC50 expressed as class A/B

SMILES	EC50
CC(C)(CNC(=O)c1ccc(Nc2nc(NC3(c4ccc(Cl)cc4)CC3)nc(OCC(F)(F)F)n2)cc1)NC(=O)C(=O)N1CCc2ccccc2C1 [Compound 3440]	0.01 to 10 nM
COC(=O)[C@H](CNC(=O)C(=O)Nc1ccc(OC2CCOCC2)cc1)NC(=O)c1ccc(Nc2nc(NC3(c4ccc(Cl)cc4)CC3)nc(OCC(F)(F)F)n2)cc1 [Compound 3208]	0.01 to 10 nM
COC(=O)[C@H](CCNC(=O)C(=O)Nc1ccc(Oc2ccncc2)cc1)NC(=O)c1ccc(Nc2nc(NC3(c4ccc(Cl)cc4)CC3)nc(OCC(F)(F)F)n2)cc1 [Compound 3323]	0.01 to 10 nM
O=C(NCCC(NC(=O)c1ccc(Nc2nc(NC3(c4ccc(Cl)cc4)CC3)nc(OCC(F)(F)F)n2)cc1)C(=O)O)C(=O)Nc1ccc(CN2CCCCC2)cc1 (stereo not shown) [Compound 3534]	0.01 to 10 nM
CC(C)(CNC(=O)C(=O)Nc1ccc(Cl)cc1F)CNC(=O)c1ccc(Nc2nc(NC3(c4ccc(Cl)cc4)CC3)nc(OCC(F)(F)F)n2)cc1 [Compound 3452]	0.01 to 10 nM
Cn1cnnc1-c1ccc(NC(=O)C(=O)NC[C@H](NC(=O)c2ccc(Nc3nc(NC4(c5ccc(Cl)cc5)CC4)nc(OCC(F)(F)F)n3)cc2)C(=O)O)cc1 [Compound 3283]	0.01 to 10 nM
